Each structure is given as a SMILES string. Several values for one entry are separate records, joined by “and”; a condition that tells them apart may be missing. Identical values can stand only once.

The results in this text go back to publication PMC10541198, “Specific quinone reductase 2 inhibitors reduce metabolic burden and reverse Alzheimer’s disease phenotype in mice” (The Journal of Clinical Investigation, 2023).

The assay has as its system QR2. As to the kind of experiment: Immunoblot of QR2 in HCT116 cells after 4-day treatment. The assay is classed as cell-based, human. Particulars: 2 μM, 4 days; for QR2 expression, mean ± SEM (vehicle = 1): HCT116, n=6. The procedure: To establish direct target engagement and cell membrane permeability, a cellular thermal shift assay (CETSA) was carried out, using leading QR2is YB’s-537, 800, and 808. Following a 1 hour preincubation with 5 μM of the QR2is or vehicle, thermal aggregation curves (Taggs) of QR2 expressed in HEK293T were measured in increasing temperatures. All QR2is increased QR2 thermal stability compared with vehicle (Supplemental Figure 2A). Based on the Tagg curves we selected 73°C for isothermal dose-response fingerprint (IDTRF) experiments (Supplemental Figure 2B). The ITDRF allowed the relative quantification of the binding of each of the QR2is to QR2, measured as the EC50 (Figure 3A). […] We evaluated the safety of the QR2is using cell toxicity and viability assays. […] Cell viability was assessed by XTT assay in HEK239T cells, using a dose response, with 3- or 24-hour incubations of the leading QR2is. No sign of toxicity was seen (Figure 3C). Next, we wanted to assess if, similar to QR2 KO, QR2is can reduce cellular ROS in HCT116 cells and see whether any observable effect is occluded in QR2Δ cells. […] We then assessed WT HCT116 cells by immunoblot (Supplemental Figure 2, C and D), after being treated with YB-800 (2 μM) for 4 consecutive days.
H2DCFDA ROS assay was carried out according to established protocols, with some adjustment (Supplemental Methods) ([6]). Cell toxicity was measured via ATP depletion (CellTiter Glo, Promega) in THLE-2 cells (ATCC, CRL-2706), following 72 hours of exposure to the test compounds, and cell viability was assessed using XTT assay (Biological Industries) according to manufacturers protocols. […]
(Ser51) eIF2α (1:1000, Cell Signaling, 9721), diluted in blocking buffer. The ne xt day, the m em br anes w e re washed three times in TBST and incubated at room temperature (RT) for 1 h with 1:10,000 secondary antibodies conjugated to horseradish peroxidase, and following a further t hr e e times washes in TBSTwere immunoblotted with Westar Supernova (Cyanagen), imaged using a charge-coupled device camera and analyzed using Quantity One software (Bio-Rad). […]
On the technique in general: Immunoblotting shows a protein as a band on a membrane.

Take `Cc1ccc(-c2cn3cccc(C)c3n2)cc1S(=O)(=O)N1CCC(C)CC1` [YB-800]: the “QR2 expression, mean ± SEM (vehicle = 1)” value is reported as “unchanged”. Further, where the note is “HCT116”, the “QR2 expression (replicates)” value was 1.514 and 1.125 and 1.62 and 0.8886 and 0.7618 and 1.183. Further, the “QR2 expression, mean ± SEM (vehicle = 1)” value (listed as NG800) came out at 1.182 ± 0.137.
